The data set can be described thus: gradient 5% acetonitrile 3 min, to 50% in 2 min, to 85% in 15 min, held 3 min, 100 µL/min. The note with it: column: Zorbax Extend-C18 2.1 x 50 mm; eluents: water / acetonitrile, 0.1% formic acid. An outline of the steps:
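In both positive and negative ionization mode, a quadrupole time-of-flight mass spectrometer coupled to HPLC analyzed pure standards run in mixtures of ~100 molecules. The Zorbax Extend-C18 column (2.1 × 50 mm, 1.8 μm) was operated at 100 μL/min with water and acetonitrile, each containing 0.1% formic acid. The dead volume was 40 μL and the dwell volume 900 μL. Retention time came from adduct peaks that were computationally picked and individually inspected by hand.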
In the case of `O=C(Nc1ccc(F)c(F)c1)C1CCN(c2ccc(=O)n(-c3ccc(F)cc3)n2)CC1`, the RP-LC retention time was found to be 822 s.

On to `Cc1cc(N2CCN(C(=O)c3cccc(N(C)C)c3)CC2)nc2nnc(C)n12`, for which the RP-LC retention time came to 557 s. Regarding `O=C(NCCCN1CCN(c2ccc(F)cc2)CC1)C1CCCN(c2nc3cccnc3s2)C1` (stereo not drawn), the RP-LC retention time was 645 s.

Molecule `O=C(Nc1ccccc1F)N1CCC(n2cnc3ccccc3c2=O)CC1` returned an RP-LC retention time of 712 s.

The molecule `CCCCN(CC)S(=O)(=O)c1ccc(C(=O)Nc2nc3c(s2)COc2ccccc2-3)cc1` showed an RP-LC retention time of 1230 s. As to `O=C(NCc1ccc2c(c1)OCO2)NCc1ccc2c(c1)OCO2`, the RP-LC retention time was 692 s.

In the case of `COc1ccc(NC(=O)C2CCN(c3nnc4cccc(C)n34)CC2)cc1Cl`, the RP-LC retention time was found to be 700 s.

For the molecule `O=C(NCc1ccco1)Nc1ccc2c(c1)N(C(=O)c1ccccc1)CC2`, the RP-LC retention time worked out at 756 s. The result for `Cc1cc(F)ccc1NC(=O)C1CCN(S(=O)(=O)c2cn(C(C)C)cn2)CC1` reads 732 s; that for `Cc1ccc(Cn2nc3c(S(=O)(=O)N4CCN(c5ccc(F)cc5)CC4)cccn3c2=O)cc1`, 1020 s; that for `COc1ccc(S(=O)(=O)N2C[C@H]3CN(C(=O)Nc4cccc(OC)c4)C[C@@H](C2)O3)cc1`, 881 s. `O=C1CCCc2c1cc(C(=O)N1CCOCC1)c(=O)n2-c1ccc(C(F)(F)F)cc1` came in with an RP-LC retention time of 723 s. The result for `CCn1cc(-c2ccc(C)cc2)cc1C(=O)NC(C)c1cccnc1` (stereo not drawn) reads 736 s; that for `COc1ccc(CN2C(=O)CC(c3ccc(OC)cc3)CC2=O)cc1`, 965 s. `O=C(NCCC1CCN(S(=O)(=O)c2ccccc2)CC1)Nc1ccc(F)cc1` returned an RP-LC retention time of 883 s. In turn, `Cc1ccc(N2CCN(CC(O)c3ccc4c(c3)OCO4)CC2)cc1` (stereo not drawn) gave an RP-LC retention time of 665 s. Regarding `CCOC(=O)c1ccc(NS(=O)(=O)c2cc3n(c2)CCCN(C)C3=O)cc1`, the RP-LC retention time turned out to be 711 s. `COCCN(CCOC)c1nc(S(=O)(=O)c2ccc(C)cc2)c(Cl)s1` displayed an RP-LC retention time of 939 s. In turn, `Cc1nc(-c2nnc(NC(=O)c3cnccn3)o2)cs1` showed an RP-LC retention time of 567 s. Regarding `Cc1ccc(-c2nocc2CCC(=O)NC(C)c2ccc(F)cc2)cc1` (stereo not drawn), the RP-LC retention time was found to be 953 s. As for `COc1ccc(-c2noc(CN3N=NC4C(=O)N(c5ccc(F)cc5)C(=O)C43)n2)c(OC)c1` (stereo not drawn), the RP-LC retention time was 1170 s. Molecule `Cc1ccc(CN2CC(=O)N(CCc3ccccn3)C(c3cccs3)C2=O)cc1` (stereo not drawn) registered an RP-LC retention time of 559 s.

In the case of `COCCn1cc(CCNC(=O)Nc2cccc(C)c2)c2cccnc21`, the RP-LC retention time came to 728 s. The molecule `CCOC(=O)CSc1nnc(CNC(=O)c2cc(OC)c(OC)c(OC)c2)n1C` registered an RP-LC retention time of 601 s. For `CCNC(=O)C1CCN(C(=O)N2C[C@H]3C[C@H](C2)[C@H]2CCCC(=O)N2C3)CC1`, the RP-LC retention time is 599 s. `COc1ccc(NC(=O)Cn2nc3nc(N4CCCCC4C)ccn3c2=O)cc1` (stereo not drawn) came in with an RP-LC retention time of 755 s. Turning to `CCN(CC)CCCNC(=O)c1cccn1-c1nnc(N2CCCC2)s1`, the RP-LC retention time was 562 s. Consider `Cc1cc(C)n2c(Nc3ccc(C(C)C)cc3)c(-c3cccc(Br)c3)nc2n1`, for which the RP-LC retention time was 1000 s. Turning to `Cc1noc(-c2ccc(OC3CN(S(=O)(=O)c4cn(C)cn4)C3)cc2)n1`, the RP-LC retention time was 796 s. In turn, `O=C(NC1CCCC1)C1CCCN(c2ccc3cc(S(=O)(=O)N4CCCC4)ccc3n2)C1` (stereo not drawn) showed an RP-LC retention time of 716 s. For `CCc1ccc(OCC(=O)Nc2cc3c(cc2N2CCCC2)n(C)c(=O)c(=O)n3C)cc1` the value was 836 s; for `Cc1ccc(Cn2c(=O)c(SCC(=O)NCC3CCCO3)nc3ccccc32)cc1` (stereo not drawn), 889 s. For `O=C(Nc1ccccc1C(F)(F)F)N1CCCC1c1nc(-c2ccc(F)cc2F)no1` (stereo not drawn) the value was 1030 s; for `O=C(Nc1ccc(N2CCCN(C(=O)C3CC3)CC2)cc1)c1ccc(=O)[nH]c1`, 595 s. The molecule `CC1CN(C(=O)Cn2cc(SCC(=O)N3CCCCCC3)c3ccccc32)CC(C)O1` (stereo not drawn) yielded an RP-LC retention time of 889 s. Consider `Cc1onc(-c2ccccc2Cl)c1C(=O)NC1CC1`, for which the RP-LC retention time is 746 s. The result for `O=C(NCc1ccc2c(c1)OCO2)C1CCCN(c2ccnc(-c3ccc(F)cc3)n2)C1` (stereo not drawn) reads 660 s.

In the case of `CCOC(=O)CCNC(=O)N1c2ccccc2CC1c1nc(C(C)C)no1` (stereo not drawn), the RP-LC retention time came out at 609 s. The molecule `Cc1ccccc1CNC(=O)CN1C(=O)CCCc2cc(S(=O)(=O)N3CCCC3)ccc21` displayed an RP-LC retention time of 916 s. `CCCN(CCC)C(=O)C1COC2(CCCCC2)N1C(=O)c1c(OC)cccc1OC` (stereo not drawn) had an RP-LC retention time of 864 s. As to `CCN1c2cc(Cl)ccc2C(=O)NC12CCN(C(=O)Nc1ccccc1C)CC2`, the RP-LC retention time turned out to be 837 s. `CNC(=O)c1cc2c(=O)n(CC(C)C)c3ccccc3n2n1`: the RP-LC retention time came to 793 s. In turn, `O=C1Nc2cc(S(=O)(=O)NCCC3=CCCCC3)ccc2SC1C(=O)N1CCCC1` (stereo not drawn) registered an RP-LC retention time of 858 s.

With `O=C(NCc1nc(-c2ccc(-c3csc(-c4ccccc4)n3)cc2)no1)c1ccco1`, the RP-LC retention time amounted to 1090 s. `CCOC(=O)C1CCN(C(=O)C2CCCN2S(=O)(=O)c2cc3c(cc2Cl)NC(=O)CO3)CC1` (stereo not drawn) showed an RP-LC retention time of 710 s. The result for `COc1cccc(S(=O)(=O)N2CCC(c3nc(C(=O)N4CCOCC4)c(C)o3)CC2)c1` reads 794 s. `C=CCn1c(=O)c2ccccc2n(Cc2nc(-c3ccc(OC)c(OC)c3)no2)c1=O` had an RP-LC retention time of 937 s.

Turning to `Cc1cccc(-c2nc(-c3cn(-c4ccccc4)nn3)no2)c1`, the RP-LC retention time worked out at 1060 s. `O=S(=O)(c1ccc(Cl)s1)N1CCN(c2ccc(-n3ccnc3)nn2)CC1` displayed an RP-LC retention time of 593 s. `COc1ccc(-n2c(=O)n(C)c(=O)c3cc(C(=O)NCc4ccccc4F)cnc32)cc1` gave an RP-LC retention time of 849 s.

For the molecule `COc1ccc(CNC(=O)C2(C)Oc3cccnc3N(C)C2=O)cc1` (stereo not drawn), the RP-LC retention time was 748 s.

Molecule `COc1ccc(-c2ccc(=O)n(Cc3nc(-c4ccc(OC(C)C)cc4)no3)n2)cc1` yielded an RP-LC retention time of 1120 s. `Cc1nc(OCC(=O)N2CCCCCC2)c2c(-c3ccc(F)cc3)noc2n1` returned an RP-LC retention time of 1100 s. `COc1ccccc1-c1noc(C2CCCN2C(=O)c2n[nH]c3ccccc23)n1` (stereo not drawn): the RP-LC retention time is 829 s. In turn, `O=C(NCCc1ccccc1)N1CCCn2nc(-c3cccs3)cc2C1` came in with an RP-LC retention time of 805 s.

Consider `Cc1nn(Cc2nc(-c3ccc(NC(=O)c4cccs4)cc3)oc2C)c(C)c1C`, for which the RP-LC retention time was 922 s. In turn, `O=C(C1CCN(c2cnc(N3CCCC3)nc2)CC1)N1CCOCC1` gave an RP-LC retention time of 587 s. For the molecule `Cc1ccc(F)cc1NC(=O)Cc1nnc(-c2cnccn2)o1`, the RP-LC retention time was 683 s. `CCOc1cccc(-c2noc(-c3nn(-c4ccccc4)ccc3=O)n2)c1` displayed an RP-LC retention time of 942 s. In turn, `Cc1[nH]c(C(=O)NC2CCCCC2)c(C)c1S(=O)(=O)N1CCCC1` came in with an RP-LC retention time of 843 s. `COc1ccc(CNC(=O)C2CCc3nc(N4CCOCC4)ncc3C2)cc1` (stereo not drawn): the RP-LC retention time stood at 777 s. The result for `COCCN1CCCc2ccc(NC(=O)c3ccc(Br)o3)cc21` reads 913 s; that for `Cn1cccc1C(=O)C(=O)Nc1ccc(C#N)cc1`, 872 s; that for `CCS(=O)(=O)Nc1ccc(-c2noc(COc3ccc(F)cc3)n2)cc1`, 931 s. `CCN1CCN(C(=O)c2cn(-c3cc(N4CCSCC4)ncn3)cn2)CC1` came in with an RP-LC retention time of 605 s. Consider `Cc1ccc(C(=O)N2CCCC(COc3ccc(C(=O)N4CCOCC4)cc3)C2)cc1` (stereo not drawn), for which the RP-LC retention time came to 793 s. Molecule `CC(C)(C)C(=O)N1CCCC1COc1ccc(C(=O)N2CCCC2)cc1` (stereo not drawn) showed an RP-LC retention time of 647 s. In the case of `Cc1ccc(-c2nnc(-c3nn(C)c4c3CN(S(=O)(=O)c3ccc(C(C)(C)C)cc3)CC4)o2)cc1`, the RP-LC retention time was determined as 1210 s. In turn, `COC[C@@H]1CN(S(=O)(=O)c2cccc(C#N)c2)C[C@H]1c1ccncc1` came in with an RP-LC retention time of 630 s. The molecule `CC(C)Cc1cc(-c2nn3c(-c4ccccc4F)nnc3s2)n[nH]1` showed an RP-LC retention time of 915 s. Consider `O=c1c2cc(-c3ccc4c(c3)OCO4)nn2ccn1Cc1nc(-c2cccc(F)c2)no1`, for which the RP-LC retention time came out at 1010 s. On to `C=CCN1C[C@@H](C)N([C@H](c2ccc(C(=O)N(CC)CC)cc2)c2cccc(OC)c2)C[C@@H]1C`, for which the RP-LC retention time was 770 s. For `CC1=C(c2ccc(C)c(C)c2)S(=O)(=O)N=C1N1CCCN(C(=O)C2CCCC2)CC1` the value was 912 s; for `CCCCN(C)c1ccc(NC(=O)CC(C)C)c(C(=O)O)c1`, 729 s; for `CCc1ccc(NC(=O)Cn2nc3n(c2=O)CCCC3)cc1`, 669 s. As for `CC(CCc1ccccc1)NCc1ccc2c(c1)n(C)c(=O)n2C` (stereo not drawn), the RP-LC retention time came out at 610 s. As to `CCCn1cc(-c2ccncc2)cc1C(=O)Nc1ccc2c(c1)OCCO2`, the RP-LC retention time came to 679 s. In turn, `Cc1ccc2nc(C(=O)NCc3cc(F)cc(F)c3)cn2c1` had an RP-LC retention time of 695 s.

These data come from the METLIN SMRT retention time set (Domingo-Almenara et al. 2019).
